What follows are compounds tested against AChE (acetylcholinesterase) (Electrophorus electricus, UniProt O42275) (assay: Ellman spectrophotometric assay).
Sequence of AChE (acetylcholinesterase) (O42275 24-633): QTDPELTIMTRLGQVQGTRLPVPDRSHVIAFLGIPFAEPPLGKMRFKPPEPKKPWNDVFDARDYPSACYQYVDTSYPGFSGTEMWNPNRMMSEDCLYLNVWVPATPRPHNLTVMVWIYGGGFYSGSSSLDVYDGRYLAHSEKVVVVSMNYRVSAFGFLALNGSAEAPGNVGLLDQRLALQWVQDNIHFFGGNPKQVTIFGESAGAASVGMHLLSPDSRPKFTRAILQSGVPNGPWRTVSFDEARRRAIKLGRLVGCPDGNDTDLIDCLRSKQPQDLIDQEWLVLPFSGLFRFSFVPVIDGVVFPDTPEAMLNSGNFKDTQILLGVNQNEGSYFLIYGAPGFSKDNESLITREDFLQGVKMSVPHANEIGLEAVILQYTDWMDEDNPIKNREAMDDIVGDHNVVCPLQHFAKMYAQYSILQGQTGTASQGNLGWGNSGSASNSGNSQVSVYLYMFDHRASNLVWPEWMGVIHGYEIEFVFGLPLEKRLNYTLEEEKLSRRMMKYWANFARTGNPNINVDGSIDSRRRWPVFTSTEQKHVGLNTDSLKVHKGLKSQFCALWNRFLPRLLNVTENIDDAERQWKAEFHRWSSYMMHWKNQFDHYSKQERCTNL
Assay type: biochemical
For CC(=O)OC1C(C)CC(=O)N2CCCC3=C(CCC2)C1CC3=O (stereo not drawn) [compound 1, lycosquarosine A], the IC50 was 170 µM.
Compound COc1ccc2cc3[n+](cc2c1OC)CCc1cc2c(cc1-3)OCO2 [Berberine, reference compound] has an IC50 of 0.268 µM.
acetylaposerratinine [compound 2] showed an IC50 of 15.2 µg/mL.

From paper PMC6271335, “Anti-Cholinesterase Activity of Lycopodium Alkaloids from Vietnamese Huperzia squarrosa (Forst.) Trevis” (Molecules, 2014)
